From patent US6254853A, “Water soluble pro-drugs of propofol” (Vyrex Corporation, priority 1998, dated 2001)
Entries after “also recorded” stand apart in the source; their conditions may differ.

Columns and labels:
[1] = test system: low density lipoprotein (LDL); assay: Effect of propofol esters on copper-promoted oxidation of LDL (conjugated dienes); format: biochemical, human; conditions: 5 μM; 100 μg/ml LDL, 5 μM copper sulfate
Description: (§1) The following experiment is based on the use of low density lipoprotein (LDL) as an oxidizable substrate. LDL is one of the plasma lipoproteins whose oxidation is thought to contribute to the pathogenesis of atherosclerosis. The copper-promoted, the hydrogen peroxide-/horseradish peroxidase-promoted and the myeloperoxidase-promoted oxidation of LDL are models for the free radical-induced oxidation of LDL that occurs in vivo.
(§2) LDL was isolated from heparinized plasma of normal human donors by ultracentrifugation. Most of the experiments described in this study were performed immediately after isolation. Examples and further details of the experimental procedures may be found in N. Santanam et al. J. Clin Invest. 95(6):2594 (1995) and FEBS Leters, 414:549-551 (1997).
(§3) The formation of conjugated dienes was measured in a spectrophotometer (model DB-3500; SLM-AMINCO, Urbana, Ill.) equipped with a 12 position sample changer. Samples and references were measured continuously for periods of up to several hours. Typically, 100 μg/ml of LDL was incubated in PBS with 1 U horseradish peroxidase (type X, 260 U/mg) in the presence of 50 μM H2 O2. For copper-mediated oxidation, 100 μg/ml LDL was incubated with 5 μM copper sulfate solution.

[2] = in words; background knowledge; cited from earlier work
lipid peroxidation = conditions: Misacchia et al. 1991; cited from earlier work
[3] = test system: low density lipoprotein (LDL); assay: Effect of propofol esters on hydrogen peroxide/horseradish peroxidase-promoted oxidation of LDL (conjugated dienes); format: biochemical, human; conditions: 5 μM; 100 μg/ml LDL, 1 U horseradish peroxidase, 50 μM H2O2
Description: as §1, §2, §3

spinal cord = conditions: literature; cited from earlier work
colorectal cancer tumors = conditions: mice; co-administered with 5-fluorouracil or doxorubicin; Chinery et al. 1997; cited from earlier work
[4] = literature; cited from earlier work
Water solubility = conditions: in words
[5] = In vitro hydrolysis of propofol esters to propofol in human saliva; format: in vitro ADME; conditions: room temperature, approximate
Procedure: (§4) In vitro hydrolysis of propofol esters in various media
(§5) General procedure: Propofol ester was dissolved in the test medium at room temperature, and samples were removed periodically for analysis. The samples were extracted with hexane, the extracts were evaporated to dryness, and the residues were taken up in methanol. Analysis was by HPLC using methanol solvent through an ODS column and UV detection at 260 nm.
(§6) The approximate half-life for the hydrolysis of propofol hemisuccinate to propofol in various media were as follows: […]

[6] = In vitro hydrolysis of propofol esters to propofol in human whole blood; format: in vitro ADME; conditions: room temperature, approximate
Procedure: as §4, §5, §6

[7] = test system: Human low density lipoprotein (huLDL); assay: Effect of propofol esters on myeloperoxidase-mediated oxidation of LDL (conjugated dienes); format: biochemical; conditions: concentration not given
Description: as §1, §2
Human low density lipoprotein (huLDL) in the presence of myeloperoxidase undergoes oxidative modification. The oxidative damage may be measured by spectrophotometric detection of the resulting conjugated dienes (N. Santanam & S. Parthasarathy, J. Clin. Invest, 95(6):2594 (1995)).

[8] = In vitro hydrolysis of propofol esters to propofol in rat whole blood; format: in vitro ADME; conditions: room temperature, approximate
Procedure: as §4, §5, §6

[9] = In vitro hydrolysis of propofol esters to propofol in human plasma; format: in vitro ADME; conditions: room temperature, approximate
Procedure: as §4, §5, §6

[10] = In vivo hydrolysis of propofol hemisuccinate after gavage (blood levels of propofol; observation of the animals); parameters: species or system male Sprague-Dawley rats; conditions: rat, two days following dosing
Procedure: At a dosage of 400 mg of propofol hemisuccinate per kg body weight, the blood level of propofol at 4 hrs was about 1 μg/ml.

[11] = In vitro hydrolysis of propofol esters to propofol in albumin; format: in vitro ADME; conditions: room temperature, approximate
Procedure: as §4, §5, §6

[12] = In vitro hydrolysis of propofol esters to propofol in water (PBS buffer pH 7.4); format: in vitro ADME; conditions: room temperature, approximate
Procedure: as §4, §5, §6

CC(C)c1cccc(C(C)C)c1O [propofol, 2,6-diisopropylphenol]
effect on copper-promoted oxidation of LDL [1]: almost totally inhibited
water solubility of propofol [2]: almost completely insoluble in water; also recorded: very low water solubility
inhibition of lipid peroxidation (lipid peroxidation): inhibit lipid peroxidation
effect on oxidation of LDL in the presence of horseradish peroxidase/hydrogen peroxide [3]: almost totally inhibited

Cc1c(C)c2c(c(C)c1O)CCC(C)(CCCC(C)CCCC(C)CCCC(C)C)O2 (stereo not drawn) [Alpha-tocopherol]
effect on chronic neurological recovery (spinal cord): enhance chronic neurological recovery
effect on post-traumatic spinal cord ischemia (spinal cord): decrease post-traumatic spinal cord ischemia
growth of colorectal cancer tumors (colorectal cancer tumors): inhibited the growth
uptake into the central nervous system [4]: very slowly

CC(C)c1cccc(C(C)C)c1OP(=O)(O)O [mono(propofol) phosphate]
effect on copper-promoted oxidation of LDL [1]: not significantly affected
solubility in water (Water solubility): most soluble
effect on oxidation of LDL in the presence of horseradish peroxidase/hydrogen peroxide [3]: not significantly affected
Half-Life to Hydrolysis [5]: about four

S=C(S)N1CCCC1 [pyrrolidine dithiocarbamate (PDTC), pyrrolidine dithiocarbamate]
growth of colorectal cancer tumors (colorectal cancer tumors): inhibited the growth

CC(C)c1cccc(C(C)C)c1OP(=O)(O)Oc1c(C(C)C)cccc1C(C)C [di(propofol) phosphoric acid ester]
effect on copper-promoted oxidation of LDL [1]: not significantly affected
effect on oxidation of LDL in the presence of horseradish peroxidase/hydrogen peroxide [3]: not significantly affected

CC(C)c1cccc(C(C)C)c1OC(=O)CCC(=O)O [propofol hemisuccinate, 2,6-diisopropylphenyl hydrogen succinate]
half-life [6]: ~48 h
effect on oxidation of LDL in the presence of myeloperoxidase [7]: partly inhibited; also recorded: significantly inhibited
half-life [8]: ~2 h
effect on copper-promoted oxidation of LDL [1]: not significantly affected
half-life [9]: ~72 h
condition of the animals through the two day observation period [10]: remained healthy and active
solubility in water (Water solubility): most soluble
half-life [11]: ~144 h
effect on oxidation of LDL in the presence of horseradish peroxidase/hydrogen peroxide [3]: slightly inhibited
half-life [12]: ~336 h
half-life [5]: ~96 h
